{
  "source": "patent US20100035925A1",
  "about": "“COMPOUNDS, PHARMACEUTICAL CO[…] DMETHODS FOR […] INFECTIVITY” ([…], INC, priority 2004, published 2010)",
  "key": {"[1]": {"test_system": "transfected 293 cells"}, "[2]": {"test_system": "HIV drug resistant strains (pL10R and p1617-1)", "type": "cell-based"}},
  "data": [
    {"smiles": "O=C(O)C[S+]([O-])c1ccc2c3c(cccc13)C(=O)c1ccccc1-2", "note": "(centres unmarked) [Compound 111]", "values": [
      {"measurement": "cytotoxicity", "setting": "[1]", "result": "without significant cytotoxicity"}
    ]},
    {"smiles": "COc1ccc2c(Cc3c4ccccc4cc4ccccc34)cncc2c1O", "note": "[Compound 1334]", "values": [
      {"measurement": "inhibitory activity on HIV infectivity (in words)", "setting": "[2]", "result": "lesser inhibitory activity"}
    ]}
  ]
}
